Reference: ChEMBL document CHEMBL1201862, “PubChem BioAssay data set” (2004)
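Five compound concentrations were applied to cells in 96-well plates for 48 hours; endpoints were derived by simple linear interpolation of the resulting dose-response curve. GI50 is the concentration that inhibits growth by half.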 Calls of active or inactive are those of the source. No stated cut-off is given here; in the data, active = GI50 up to about 1.1 µM and inactive = higher.

Assays:
Assay in all cases: NCI-60 cell line screen, 48 h
ACHN = tested on: ACHN
CAKI-1 = tested on: CAKI-1
CCRF-CEM = tested on: CCRF-CEM
HOP-62 = tested on: HOP-62
HT-29 = tested on: HT-29
IGROV-1 = tested on: IGROV-1
K562 = tested on: K562
KM-20L2 = tested on: KM-20L2
OVCAR-3 = tested on: OVCAR-3
OVCAR-8 = tested on: OVCAR-8
SF-295 = tested on: SF-295
SK-MEL-5 = tested on: SK-MEL-5
SNB-19 = tested on: SNB-19
SR = tested on: SR
TK-10 = tested on: TK-10

| SMILES | GI50 (ACHN) | GI50 (CAKI-1) | GI50 (CCRF-CEM) | GI50 (HOP-62) | GI50 (HT-29) | GI50 (IGROV-1) | GI50 (K562) | GI50 (KM-20L2) | GI50 (OVCAR-3) | GI50 (OVCAR-8) | GI50 (SF-295) | GI50 (SK-MEL-5) | GI50 (SNB-19) | GI50 (SR) | GI50 (TK-10) |
| --- | --- | --- | --- | --- | --- | --- | --- | --- | --- | --- | --- | --- | --- | --- | --- |
| CC/C(CC(=O)CCC(=O)Nc1ccc(C)c(C)c1)=N\NC(=O)C(N)=O | > 100 µM (inactive) | > 100 µM (inactive) | > 100 µM (inactive) | > 100 µM (inactive) | > 100 µM (inactive) | > 100 µM (inactive) | > 100 µM (inactive) | > 100 µM (inactive) | > 100 µM (inactive) | > 100 µM (inactive) | > 100 µM (inactive) | > 100 µM (inactive) | > 100 µM (inactive) | > 100 µM (inactive) | > 100 µM (inactive) |
| COP(=O)(OC)/C(=N\Nc1ccc([N+](=O)[O-])cc1)NCc1ccccc1 | 28 µM (inactive) | 38.6 µM (inactive) | 20.6 µM (inactive) | 23.6 µM (inactive) | 43.3 µM (inactive) | 30.8 µM (inactive) | 27.5 µM (inactive) | 30.1 µM (inactive) | 33.4 µM (inactive) | 30.5 µM (inactive) | 25.8 µM (inactive) | 17.5 µM (inactive) |  | 20.3 µM (inactive) | 30 µM (inactive) |
| CC1(O)CCn2c(=O)c3cc4ccccc4cc3c(=O)n2C1O (stereo not drawn) | > 100 µM (inactive) | > 100 µM (inactive) | > 100 µM (inactive) | > 100 µM (inactive) | > 100 µM (inactive) | > 100 µM (inactive) | > 100 µM (inactive) | > 100 µM (inactive) | > 100 µM (inactive) | > 100 µM (inactive) | > 100 µM (inactive) | > 100 µM (inactive) | > 100 µM (inactive) | > 100 µM (inactive) | > 100 µM (inactive) |
| CCOC(=O)CCC1(C(=O)OCC)CCCC1=O (stereo not drawn) | > 100 µM (inactive) | > 100 µM (inactive) | > 100 µM (inactive) | > 100 µM (inactive) | > 100 µM (inactive) | > 100 µM (inactive) | > 100 µM (inactive) | > 100 µM (inactive) | > 100 µM (inactive) | > 100 µM (inactive) | > 100 µM (inactive) | > 100 µM (inactive) | > 100 µM (inactive) | 25.4 µM (inactive) | > 100 µM (inactive) |
| Cc1ccc2nc3cc(C)c(=O)cc-3sc2c1 | 57.7 µM (inactive) | 39.7 µM (inactive) | 8.95 µM (inactive) | > 100 µM (inactive) | > 100 µM (inactive) | > 100 µM (inactive) | 13.6 µM (inactive) | > 100 µM (inactive) | > 100 µM (inactive) | 56 µM (inactive) | 94.2 µM (inactive) | 44.9 µM (inactive) | > 100 µM (inactive) | 17 µM (inactive) | > 100 µM (inactive) |
| O=C1NC2C(=O)N(Cc3ccccc3)C(=O)C2N1 (stereo not drawn) | > 100 µM (inactive) | > 100 µM (inactive) | > 100 µM (inactive) | > 100 µM (inactive) | > 100 µM (inactive) | > 100 µM (inactive) | > 100 µM (inactive) | > 100 µM (inactive) | > 100 µM (inactive) |  | > 100 µM (inactive) | > 100 µM (inactive) | > 100 µM (inactive) | > 100 µM (inactive) | > 100 µM (inactive) |
| CC(=O)O[C@H]1C(=O)[C@@]2(C)C(C(OC(=O)c3ccccc3)[C@]3(O)CC(OC(=O)C(O)C(NC(=O)c4ccc(C(F)(F)F)cc4)c4ccccc4)C(C)=C1C3(C)C)[C@]1(OC(C)=O)CO[C@@H]1C[C@@H]2O (stereo partly drawn) | 1.9 µM (inactive) | 0.076 µM (active) | 0.175 µM (active) | 0.0989 µM (active) | 0.0565 µM (active) | 0.183 µM (active) | 0.108 µM (active) | 0.0767 µM (active) | 0.0757 µM (active) | 0.161 µM (active) | 0.239 µM (active) | 0.0942 µM (active) | 0.861 µM (active) | 0.0264 µM (active) | 1.95 µM (inactive) |
